From PMC12223475, “Two Key Ferredoxins for Nitrogen Fixation Have Different Specificities and Biophysical Properties” (Chemistry (Weinheim an Der Bergstrasse, Germany), 2025) come the findings set out here.

The test addresses T1, FdC (Rhodobacter capsulatus, UniProt D5ARY7).
T1 construct: gene fdxC; full length, N-terminal Met replaced by Strep-tag (MAWSHPQFEK), tag kept; E. coli BL21-AI; monomer
The experiment in a line: X-ray crystallography; UV-Vis; EPR. It is filed as binding. The settings on record: 1.7 Å; anaerobic crystallisation, pH 8.0; ligands C38, C43, C46, C81.

T1 sequence (D5ARY7 2-95): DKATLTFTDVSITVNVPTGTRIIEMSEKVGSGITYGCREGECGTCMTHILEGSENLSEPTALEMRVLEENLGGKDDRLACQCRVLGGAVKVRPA

On to `[S]1[Fe][S][Fe]1` [[Fe2S2]-cluster], for which the “X-ray crystallography; UV-Vis; EPR” value was “The globular and monomeric FdC coordinates a [Fe2S2]‐cluster”.
